In ChEMBL document CHEMBL4368853 (Medchemcomm, 2018):
pEC50, pIC50, pKd, pKi: −log10 of the molar value.

Tests used:
[1] = target: T1, Bromodomain-containing protein 4 (Homo sapiens, UniProt O60885); assay: Binding affinity to human partial length BRD4 bromodomain 1 long isoform (N44 to E168 residues) expressed in bacterial expression system by BROMOscan assay
[2] = target: T1, Bromodomain-containing protein 4; assay: Inhibition of acetyl-histone H4 peptide binding to His6-tagged BRD4 (1 to 477 residues) (unknown origin) after 35 mins by TR-FRET assay
[3] = target: T1, Bromodomain-containing protein 4; assay: Inhibition of biotinylated histone H4 peptide binding to BRD4 bromodomain 1 (44 to 168 residues) (unknown origin) after 60 mins by Alphascreen method
[4] = target: T1, Bromodomain-containing protein 4; assay: Inhibition of biotinylated histone H4 peptide binding to BRD4 bromodomain 2 (333 to 460 residues) (unknown origin) after 60 mins by Alphascreen method
[5] = target: T1, Bromodomain-containing protein 4
Description: Inhibition of biotinylated Acetyl-Histone H4 (Lys5, 8, 12, 16) peptide binding to GST-tagged BRD4 bromodomain 1 (44 to 168 residues) (unknown origin) after 30 mins by Alphascreen method

[6] = test system: MV4-11; assay: Antiproliferative activity against human MV4-11 cells; assay type: functional, cell-based
[7] = Oral bioavailability in rat; assay type: ADME, organism-based; conditions: in vivo
[8] = target: T1, Bromodomain-containing protein 4; assay: Inhibition of BRD4 bromodomain 1 (unknown origin)
[9] = target: T1, Bromodomain-containing protein 4; assay: Inhibition of BRD4 bromodomain 2 (unknown origin)
[10] = test system: MV4-11; assay: Antitumor activity against human MV4-11 cells xenografted in po dosed mouse assessed as tumor regression administered once daily relative to control; assay type: functional
[11] = test system: MOLM-13; assay: Antiproliferative activity against human MOLM13 cells; assay type: functional, cell-based
[12] = target: Bromodomain-containing protein 4 (Homo sapiens, UniProt O60885, Y97A); assay: Inhibition of recombinant human N-terminal His6-tagged BRD4 Y97A mutant (1 to 477 residues) expressed in Escherichia coli after 30 mins by Alexa Fluor647 conjugated probe based TR-FRET assay
[13] = Antiproliferative activity against human CLL cells assessed as inhibition of CpG-induced cell proliferation treated for 4 hrs followed by compound washout for 44 to 48 hrs by MTS assay; assay type: functional, cell-based
[14] = target: T1, Bromodomain-containing protein 4; assay: Inhibition of His-tagged BRD4 bromodomain 2 (E352 to M457 residues) (unknown origin) by Alexa-647 conjugated probe based TR-FRET assay; assay type: single protein
[15] = test system: OPM-2; assay: Antitumor activity against human OPM2 cells xenografted in SCID Beige mouse assessed as tumor growth inhibition at 2.5 mg/kg, po administered once daily for 21 days relative to control; assay type: functional; conditions: OPM-2, po, 504 h, read-out: TGI
[16] = test system: MX1; assay: Antiproliferative activity against human MX1 cells after 72 hrs by CellTiter-Glo assay; assay type: functional, cell-based; conditions: MX1, 72 h
[17] = target: T1, Bromodomain-containing protein 4; assay: Inhibition of His-tagged BRD4 bromodomain 1 (K57 to E168 residues) (unknown origin) by Alexa-647 conjugated probe based TR-FRET assay; assay type: single protein
[18] = target: T1, Bromodomain-containing protein 4; assay: Inhibition of biotin-labelled histone peptide binding to His-tagged BRD4 (unknown origin) expressed in Escherichia coli after 30 mins by TR-FRET assay
[19] = target: T1, Bromodomain-containing protein 4; assay: Binding affinity to BRD4 bromodomain 1 (unknown origin) by isothermal titration calorimetry
[20] = test system: HL-60; assay: Growth inhibition of human HL60 cells at 10 uM after 48 hrs by sulforhodamine B assay; assay type: functional; conditions: HL-60, 48 h, read-out: GI
[21] = target: T1, Bromodomain-containing protein 4; assay: Inhibition of His6-tagged BRD4 (1 to 477 residues) (unknown origin) after 1 hr by Alexa fluor 488-conjugated probe based fluorescence anisotropy
[22] = test system: MDA-MB-453; assay: Antiproliferative activity against human MDA-MB-453 cells; assay type: functional, cell-based
[23] = test system: MDA-MB-453; assay: Antitumor activity against human MDA-MB-453 cells xenografted in SCID mouse assessed as tumor growth inhibition at 5 mg/kg, iv; conditions: MDA-MB-453, iv, read-out: TGI
[24] = target: T1, Bromodomain-containing protein 4; assay: Inhibition of biotin-labelled tetra-acetylated histone peptide binding to recombinant human N-terminal His6-tagged BRD4 bromodomain 1 (1 to 477 residues) (unknown origin) expressed in Escherichia coli after 1 hr by TR-FRET assay
[25] = test system: OPM-2; assay: Antitumor activity against human OPM2 cells xenografted in SCID Beige mouse assessed as tumor growth inhibition at 5 mg/kg, po administered once daily for 21 days relative to control; assay type: functional; conditions: OPM-2, po, 504 h, read-out: TGI
[26] = test system: MX1; assay: Antiproliferative activity against human MX1 cells; assay type: functional, cell-based
[27] = target: T1, Bromodomain-containing protein 4; assay: Inhibition of biotinylated Acetyl-Histone H4 (Lys5, 8, […], […]) peptide binding to GST-tagged BRD4 bromodomain 2 (333 to 460 residues) (unknown origin) after 30 mins by Alphascreen method
[28] = target: T1, Bromodomain-containing protein 4; assay: Inhibition of BRD4 in human MM1S cells assessed as down regulation of c-Myc expression after 1 hr by Western blot analysis
[29] = test system: MOLM-13; assay: Antiproliferative activity against human MOLM13 cells after 96 hrs by alamar blue assay; assay type: functional, cell-based; conditions: MOLM-13, 96 h
[30] = target: T1, Bromodomain-containing protein 4; assay: Inhibition of acetylated biotin-labelled RHGSGSK binding to N-terminal His6-tagged BRD4 bromodomain 1 (44 to 168 residues) (unknown origin) expressed in Escherichia coli after 1 hr by TR-FRET assay
[31] = target: T1, Bromodomain-containing protein 4; assay: Inhibition of recombinant human N-terminal His-tagged/C-terminal FLAG-tagged BRD4 bromodomain 1 (44 to 168 residues) expressed in Escherichia coli using histone peptide as substrate preincubated for 15 mins followed by substrate addition and measured after 60 mins
[32] = test system: MV4-11; assay: Antiproliferative activity against human MV4-11 cells after 72 hrs by CellTiter-Glo assay; assay type: functional, cell-based; conditions: MV4-11, 72 h
[33] = test system: Z-138; assay: Induction of apoptosis in human ibrutinib-resistant Z138 cells after 48 hrs by Annexin-V/propidium iodide staining based assay; assay type: functional, cell-based; conditions: Z-138, 48 h
[34] = test system: VCaP; assay: Antitumor activity against human VCaP cells xenografted in mouse assessed as tumor growth inhibition at 30 mg/kg, sc administered once every 3 days for 15 days; conditions: 360 h, read-out: TGI
[35] = Induction of apoptosis in human Mino cells after 48 hrs by Annexin-V/propidium iodide staining based assay; assay type: functional, cell-based
[36] = Oral bioavailability in dog; assay type: ADME, organism-based, Canis lupus familiaris; conditions: in vivo
[37] = Oral bioavailability in monkey; assay type: ADME, organism-based, Macaca mulatta; conditions: rhesus monkey, in vivo
[38] = test system: CHP-212; assay: Antitumor activity against human CHP212 cells xenografted in Crl:CD-1-Foxn1 nude mouse assessed as tumor growth inhibition at 15 mg/kg, po administered once daily for 42 days relative to control; assay type: functional; conditions: CHP-212, po, 1008 h, read-out: TGI
[39] = target: T1, Bromodomain-containing protein 4; assay: Inhibition of acetylated biotin-labelled RHGSGSK binding to N-terminal His6-tagged BRD4 bromodomain 1 (67 to 152 residues) (unknown origin) expressed in Escherichia coli after 1 hr by TR-FRET assay
[40] = target: T1, Bromodomain-containing protein 4; assay: Inhibition of acetylated biotin-labelled RHGSGSK binding to BRD4 bromodomain 2 (unknown origin) after 1 hr by TR-FRET assay

## Cc1sc2c(c1C)C(c1ccc(Cl)cc1)=N[C@@H](CC(=O)OCCCCCCO)c1nnc(C)n1-2
[1]
  pIC50: 9.37

## CC(=O)N1CC(n2cc(C3CC3)c3c2C(c2ccc(Cl)cc2)N(c2cc(C)c4nnn(C)c4n2)C3=O)C1 (stereo not given)
[2]
  pIC50: > 7.96

## CC(=O)N1c2ccc(-c3ccc(-c4cnn(C5CC5)c4)c(OC[C@H]4CC4(F)F)c3)cc2CC[C@H]1C
[3]
  pIC50: > 7.00
[4]
  pIC50: > 7.30

## CCN1C(=O)C(C)(C)c2cc3nc(-c4cc(C)c(=O)n(C)c4)n([C@@H](C)c4ccccc4)c3cc21
[5]
  pIC50: 8.89

## COc1ccc2c([nH]c3nc(C)nc(-c4ccnc5ccccc45)c32)c1-c1c(C)noc1C
[6]
  pIC50: 7.59
[7]
  bioavailability: 93%
[8]
  pKi: 8.09
[9]
  pKi: 8.85
[10]
  Activity: >80%
[11]
  pIC50: 7.28

## CC(=O)N1c2ccc(-c3ccc(C#N)cc3)cc2[C@H](Nc2ncccc2F)[C@@H](C)[C@@H]1C1CC1
[12]
  pIC50: > 7.00

## Cc1noc(C)c1-c1cnc2c(-c3ccc(C(=O)O)cc3)cn([C@@H](C)c3ccccn3)c2c1 [PLX-51107]
[13]
  pIC50: 5.00 to 6.81

## Cn1cc2c3c(c[nH]c(=O)c31)CN(c1ccccn1)c1ccc(CS(C)(=O)=O)cc1-2
[14]
  pIC50: 8.68
[15]
  inhibition in vivo at 2.5 mg/kg: 79%
[16]
  pEC50: 7.80
[17]
  pIC50: 8.96

## COc1ccc2c(ncc3nc(C4CCOCC4)n([C@H](C)COC(F)F)c32)c1-c1c(C)noc1C
[18]
  pIC50: 7.68 to 8.00

## CCc1c(C(=O)Nc2cc(S(=O)(=O)N(CC)CC)ccc2O)[nH]c(C)c1C(C)=O
[19]
  pKd: 6.63
[20]
  inhibition of growth at 10 µM: 65%

## COc1cnc2c(ncc3[nH]c(=O)n(Cc4ccccc4OC(F)(F)F)c32)c1-c1c(C)noc1C
[21]
  pIC50: 6.80

## CCn1nc(C2CC2)cc1Nc1nc(C(=O)NCCCOCCOCCOCCCNc2cccc3c2CN(C2CCC(=O)NC2=O)C3=O)nc2[nH]c3cc(-c4c(C)noc4C)c(OC)cc3c12 (stereo not given)
[22]
  pIC50: > 8.00
  IC90: < 100 nM
[23]
  inhibition in vivo at 5 mg/kg: 85%

## Cc1noc(C)c1-c1ccc2c(c1)C(C1CCCC1)(N1CCC[C@H](N)C1)C(=O)N2 (stereo not given in full)
[24]
  pIC50: 8.10
[6]
  pIC50: 7.47

## Cn1cc2c3c(c[nH]c(=O)c31)CN(c1ccc(F)cc1F)c1ccc(CS(C)(=O)=O)cc1-2
[14]
  pIC50: 8.70
[16]
  pEC50: 7.80
[25]
  inhibition in vivo at 5 mg/kg: 81%
[17]
  pIC50: 8.74

## Cc1nn(C2CC2)c2c1[C@@H](c1ccc(Cl)cc1)N(c1cc(C)c3nnc(C)n3n1)C2=O
[2]
  pIC50: > 7.96

## CCS(=O)(=O)Nc1ccc(Oc2ccc(F)cc2F)c(-c2cn(C)c(=O)c3[nH]c(C#CCN(C)C)cc23)c1
[26]
  pEC50: 8.03
[5]
  pKi: 8.89
[27]
  pKi: 8.48

## COc1nnc2ccc(N3CCC(c4ccc(OCCN5CCN(C)C(=O)[C@H]5C)cc4)CC3)nn12 [AZD-5153]
[28]
  pIC50: 8.27

## Cc1nnc(C[C@@H]2N=C(c3ccc(Cl)cc3)c3ccccc3-n3c(C)nnc32)o1
[29]
  pEC50: 6.85
[30]
  pIC50: 7.70

## COc1ccc2c(ncc3nc(C4CCC(F)(F)CC4)n([C@H](C)COC(F)F)c32)c1-c1c(C)noc1C
[18]
  pIC50: 7.68 to 8.00

## CC[C@@H]1C(=O)Nc2ccc(-c3c(C)noc3C)cc2N1Cc1ccccc1
[31]
  pIC50: 7.15
[32]
  pIC50: 6.59

## COc1ccc2c(ncc3nc(N4CCOCC4)n([C@H](C)COC(F)F)c32)c1-c1c(C)noc1C
[18]
  pIC50: 8.00

## COc1cnc2c(ncc3[nH]c(=O)n(Cc4ccccc4)c32)c1-c1c(C)noc1C
[21]
  pIC50: 6.50

## Cc1ncsc1-c1ccc([C@H](C)NC(=O)[C@@H]2C[C@@H](O)CN2C(=O)[C@@H](NC(=O)COCCCOCCNC(=O)C[C@@H]2N=C(c3ccc(Cl)cc3)c3c(sc(C)c3C)-n3c(C)nnc32)C(C)(C)C)cc1
[33]
  pIC50: 6.85
[34]
  inhibition in vivo at 30 mg/kg: 60%
[35]
  pIC50: 7.77

## CC(=O)N1c2ccc(-c3ccc(C(=O)O)cc3)cc2[C@H](Nc2ccc(Cl)cc2)C[C@@H]1C
[36]
  bioavailability: 80%
[37]
  bioavailability: 100%
[38]
  inhibition in vivo at 15 mg/kg: 82%

## C[C@@H]1C(=O)N(C)c2ccc(-c3ccc(Nc4cccc(S(=O)(=O)N(C)C)c4)cc3)nc2N1C1CCN(C)CC1
[39]
  pIC50: 7.70
[40]
  pIC50: 7.37
